Reference: US10251395B2, “Substituted furano-/thienocycloalkylamino-2-pyrimidine derivatives and use thereof for controlling undesired plant growth” (Bayer CropScience Aktiengesellschaft, priority 2015, dated 2019)

Tests used:
logP (HCOOH) = format: physicochemical; conditions: for chromatographic logP: HCOOH (formic acid)
Source text: Table 2 (physicochemical characterization of selected synthesis examples)

Polygonum convolvulus [1] = experiment: Post-emergence herbicidal effect; format: in vivo; conditions: 320 g/ha, assessed visually after about 3 weeks vs untreated controls
Procedure, shortened: (§1)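 Greenhouse weeds grown in sandy loam were sprayed at the one-leaf stage, 2–3 weeks after sowing, with WP or EC formulations in 600–800 L/ha water plus 0.2% wetting agent. Damage was scored visually after about 3 weeks as percent activity relative to untreated controls, where 100% means the plants died.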

Viola tricolor [2] = experiment: Post-emergence herbicidal effect; format: in vivo; conditions: assessed visually after about 3 weeks vs untreated controls
Procedure, shortened: as §1

Amaranthus retroflexus [3] = experiment: Post-emergence herbicidal effect; format: in vivo; conditions: assessed visually after about 3 weeks vs untreated controls
Procedure, shortened: as §1

Stellaria media [4] = experiment: Post-emergence herbicidal effect; format: in vivo; conditions: 320 g/ha, assessed visually after about 3 weeks vs untreated controls
Procedure, shortened: as §1

Abutilon theophrasti [5] = experiment: Post-emergence herbicidal effect; format: in vivo; conditions: assessed visually after about 3 weeks vs untreated controls
Procedure, shortened: as §1

Polygonum convolvulus [6] = experiment: Pre-emergence herbicidal effect; format: in vivo; conditions: scored visually after 3 weeks
Procedure, shortened: (§2)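 Seeds sown in sandy loam and covered with soil; WP or EC formulations sprayed onto the soil surface as aqueous suspension/emulsion at 600 to 800 L/ha water with 0.2% wetting agent. Greenhouse-grown; damage scored visually after 3 weeks against untreated controls (100% = plants dead, 0% = like control).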

Setaria viridis [7] = experiment: Pre-emergence herbicidal effect; format: in vivo; conditions: scored visually after 3 weeks
Procedure, shortened: as §2

Veronica persica [8] = experiment: Pre-emergence herbicidal effect; format: in vivo; conditions: scored visually after 3 weeks
Procedure, shortened: as §2

Matricaria inodora [9] = experiment: Pre-emergence herbicidal effect; format: in vivo; conditions: scored visually after 3 weeks
Procedure, shortened: as §2

Viola tricolor [10] = experiment: Pre-emergence herbicidal effect; format: in vivo; conditions: scored visually after 3 weeks
Procedure, shortened: as §2

Lolium multiflorum = experiment: Pre-emergence herbicidal effect; format: in vivo; conditions: Dosage 320 g/ha, scored visually after 3 weeks
Procedure, shortened: as §2

Echinochloa crus-galli [11] = experiment: Pre-emergence herbicidal effect; format: in vivo; conditions: scored visually after 3 weeks
Procedure, shortened: as §2

Amaranthus retroflexus [12] = experiment: Pre-emergence herbicidal effect; format: in vivo; conditions: scored visually after 3 weeks
Procedure, shortened: as §2

Stellaria media [13] = experiment: Pre-emergence herbicidal effect; format: in vivo; conditions: scored visually after 3 weeks
Procedure, shortened: as §2

Alopecurus myosuroides = experiment: Pre-emergence herbicidal effect; format: in vivo; conditions: Dosage 320 g/ha, scored visually after 3 weeks
Procedure, shortened: as §2

Setaria viridis [14] = experiment: Post-emergence herbicidal effect; format: in vivo; conditions: 320 g/ha, assessed visually after about 3 weeks vs untreated controls
Procedure, shortened: as §1

Veronica persica [15] = experiment: Post-emergence herbicidal effect; format: in vivo; conditions: 320 g/ha, assessed visually after about 3 weeks vs untreated controls
Procedure, shortened: as §1

Matricaria inodora [16] = experiment: Post-emergence herbicidal effect; format: in vivo; conditions: assessed visually after about 3 weeks vs untreated controls
Procedure, shortened: as §1

Ipomoea purpurea = experiment: Post-emergence herbicidal effect; format: in vivo; conditions: assessed visually after about 3 weeks vs untreated controls
Procedure, shortened: as §1

Echinochloa crus-galli [17] = experiment: Post-emergence herbicidal effect; format: in vivo; conditions: 320 g/ha, assessed visually after about 3 weeks vs untreated controls
Procedure, shortened: as §1

Abutilon theophrasti [18] = experiment: Pre-emergence herbicidal effect; format: in vivo; conditions: Dosage 320 g/ha, scored visually after 3 weeks
Procedure, shortened: as §2

Cc1cc2c(s1)CCCC2Nc1ncc(S(=O)(=O)C(C)(C)C)c(N)n1 (racemic) [compound 76]
logP (HCOOH) (logP (HCOOH)): solid; logP (HCOOH): 3.01; 1H NMR (CDCl3, 400 MHZ, δ in ppm): ): 1.40 (s, 9H,

Cc1cc2c(s1)CCC2Nc1ncc(S(=O)(=O)C(C)(C)C)c(N)n1 (racemic) [compound 77]
logP (HCOOH) (logP (HCOOH)): solid; logP (HCOOH): 2.67; 1H NMR (CDCl3, 400 MHZ, δ in ppm): 1.40 (s, 9H, 3*3H

COc1nc(NC2CCCc3sc(C)cc32)ncc1F (racemic) [compound 224]
logP (HCOOH) (logP (HCOOH)): solid; logP (HCOOH): 3.12; 1H NMR (CDCl3, 400 MHZ, δ in ppm): 1.90 (m, 3H, 3H

CO/N=C(/C)c1cnc(NC2CCCc3sccc32)nc1N (racemic) [compound 292]
post-emergence efficacy POLCO (Polygonum convolvulus [1]): 30%
post-emergence efficacy VIOTR (Viola tricolor [2]; 320 g/ha): 80%
post-emergence efficacy AMARE (Amaranthus retroflexus [3]; 320 g/ha): 80%
post-emergence efficacy STEME (Stellaria media [4]): 90%
post-emergence efficacy ABUTH (Abutilon theophrasti [5]; 320 g/ha): 80%
POLCO pre-emergence efficacy (herbicidal activity) (Polygonum convolvulus [6]; Dosage 80 g/ha): 70%
SETVI pre-emergence efficacy (herbicidal activity) (Setaria viridis [7]; Dosage 320 g/ha): 100%
VERPE pre-emergence efficacy (herbicidal activity) (Veronica persica [8]; Dosage 80 g/ha): 100%
VERPE pre-emergence efficacy (herbicidal activity) (Veronica persica [8]; Dosage 320 g/ha): 100%
MATIN pre-emergence efficacy (herbicidal activity) (Matricaria inodora [9]; Dosage 80 g/ha): 80%
MATIN pre-emergence efficacy (herbicidal activity) (Matricaria inodora [9]; Dosage 320 g/ha): 100%
VIOTR pre-emergence efficacy (herbicidal activity) (Viola tricolor [10]; Dosage 80 g/ha): 100%
VIOTR pre-emergence efficacy (herbicidal activity) (Viola tricolor [10]; Dosage 320 g/ha): 100%
LOLMU pre-emergence efficacy (herbicidal activity) (Lolium multiflorum): 70%
ECHCG pre-emergence efficacy (herbicidal activity) (Echinochloa crus-galli [11]; Dosage 320 g/ha): 100%
AMARE pre-emergence efficacy (herbicidal activity) (Amaranthus retroflexus [12]; Dosage 320 g/ha): 100%
STEME pre-emergence efficacy (herbicidal activity) (Stellaria media [13]; Dosage 80 g/ha): 100%
STEME pre-emergence efficacy (herbicidal activity) (Stellaria media [13]; Dosage 320 g/ha): 100%
ALOMY pre-emergence efficacy (herbicidal activity) (Alopecurus myosuroides): 100%

CC(=NO)c1cnc(NC2CCCc3sc(C)cc32)nc1N (racemic) [compound 341]
post-emergence efficacy SETVI (Setaria viridis [14]): 60%
post-emergence efficacy VERPE (Veronica persica [15]): 100%
post-emergence efficacy MATIN (Matricaria inodora [16]; 80 g/ha): 60%
post-emergence efficacy MATIN (Matricaria inodora [16]; 320 g/ha): 90%
post-emergence efficacy VIOTR (Viola tricolor [2]; 80 g/ha): 90%
post-emergence efficacy VIOTR (Viola tricolor [2]; 320 g/ha): 90%
post-emergence efficacy PHBPU (Ipomoea purpurea; 80 g/ha): 80%
post-emergence efficacy PHBPU (Ipomoea purpurea; 320 g/ha): 90%
post-emergence efficacy ECHCG (Echinochloa crus-galli [17]): 70%
post-emergence efficacy AMARE (Amaranthus retroflexus [3]; 80 g/ha): 80%
post-emergence efficacy AMARE (Amaranthus retroflexus [3]; 320 g/ha): 90%
post-emergence efficacy STEME (Stellaria media [4]): 60%
post-emergence efficacy ABUTH (Abutilon theophrasti [5]; 80 g/ha): 80%
post-emergence efficacy ABUTH (Abutilon theophrasti [5]; 320 g/ha): 90%
POLCO pre-emergence efficacy (herbicidal activity) (Polygonum convolvulus [6]; Dosage 80 g/ha): 70%
POLCO pre-emergence efficacy (herbicidal activity) (Polygonum convolvulus [6]; Dosage 320 g/ha): 100%
SETVI pre-emergence efficacy (herbicidal activity) (Setaria viridis [7]; Dosage 80 g/ha): 90%
SETVI pre-emergence efficacy (herbicidal activity) (Setaria viridis [7]; Dosage 320 g/ha): 100%
VERPE pre-emergence efficacy (herbicidal activity) (Veronica persica [8]; Dosage 80 g/ha): 100%
VERPE pre-emergence efficacy (herbicidal activity) (Veronica persica [8]; Dosage 320 g/ha): 100%
MATIN pre-emergence efficacy (herbicidal activity) (Matricaria inodora [9]; Dosage 80 g/ha): 100%
MATIN pre-emergence efficacy (herbicidal activity) (Matricaria inodora [9]; Dosage 320 g/ha): 100%
VIOTR pre-emergence efficacy (herbicidal activity) (Viola tricolor [10]; Dosage 80 g/ha): 100%
VIOTR pre-emergence efficacy (herbicidal activity) (Viola tricolor [10]; Dosage 320 g/ha): 100%
ECHCG pre-emergence efficacy (herbicidal activity) (Echinochloa crus-galli [11]; Dosage 80 g/ha): 60%
ECHCG pre-emergence efficacy (herbicidal activity) (Echinochloa crus-galli [11]; Dosage 320 g/ha): 100%
AMARE pre-emergence efficacy (herbicidal activity) (Amaranthus retroflexus [12]; Dosage 80 g/ha): 100%
AMARE pre-emergence efficacy (herbicidal activity) (Amaranthus retroflexus [12]; Dosage 320 g/ha): 100%
STEME pre-emergence efficacy (herbicidal activity) (Stellaria media [13]; Dosage 80 g/ha): 100%
STEME pre-emergence efficacy (herbicidal activity) (Stellaria media [13]; Dosage 320 g/ha): 100%
ABUTH pre-emergence efficacy (herbicidal activity) (Abutilon theophrasti [18]): 70%
ALOMY pre-emergence efficacy (herbicidal activity) (Alopecurus myosuroides): 70%

CCCS(=O)(=O)c1cnc(NC2CCCc3sccc32)nc1N (stereo not shown) [compound 37, 5-Propylsulfonyl-N2-(4,5,6,7-tetrahydrobenzothiophen-4-yl)pyrimidine-2,4-diamine]
chromatographic logP (logP (HCOOH)): 2.33

Cc1cc2c(o1)CC(C)(C)CC2Nc1ncc([N+](=O)[O-])c(N)n1 (stereo not shown) [compound 40, 5-Nitro-N2-(2,6,6-trimethyl-4,5,6,7-tetrahydro-1-benzofuran-4-yl)pyrimidine-2,4-diamine]
chromatographic logP (logP (HCOOH)): 3.2

CC(=O)c1cnc(N[C@@H]2CCCc3sccc32)nc1C [compound 71]
logP (HCOOH) (logP (HCOOH)): solid; logP (HCOOH): 2.98; 1H NMR (CDCl3, 400 MHZ, δ in ppm): ): 1.85 (m, 3H,

Cc1nc(N[C@@H]2CCCc3sccc32)ncc1F [compound 223]
logP (HCOOH) (logP (HCOOH)): solid; logP (HCOOH): 2.57; 1H NMR (CDCl3, 400 MHZ, δ in ppm): 1.90 (m, 3H, 3H
